In the experiment the test system is PMA-differentiated THP-1 cells. Kind of experiment: IL-1β production in PMA-differentiated THP-1 cells stimulated with gramicidin (hTHP-1 assay containing 2% fetal bovine serum; Procedures 1 and 2). The format is cell-based, human. Conditions: 2% fetal bovine serum. In short, it runs like this:
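THP-1 cells were differentiated with PMA (20 ng/ml, 16-18 h), detached, and plated at 50,000 cells/well in RPMI 1640 with 2% FBS. They were pre-treated with compound (0.0017–100 μM, 0.37% DMSO) for 1 h, then stimulated with gramicidin (5 μM) for 2 h. Supernatant IL-1β was measured by HTRF.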

The mark [1] stands for this setting: Homo sapiens, THP-1, Table B2, class symbols, read-out: hTHP-1 IC50.
Where [2] appears, read: Table B3, hTHP-1 assay, class symbols, read-out: IC50.
Where [3] appears, read: Table B2, class symbols, read-out: hTHP-1 IC50.
[4] abbreviates: Homo sapiens, THP-1, Table B3, hTHP-1 assay, class symbols, read-out: IC50.
The mark [5] stands for this setting: Table B1, class symbols, read-out: Average IC50 of compounds in hTHP-1 assay: hTHP-1 IC50.
The mark [6] stands for this setting: Homo sapiens, THP-1, Table B1, class symbols, read-out: Average IC50 of compounds in hTHP-1 assay: hTHP-1 IC50.
Where [7] appears, read: Homo sapiens, THP-1, Table B2, numeric bounds, read-out: hTHP-1 IC50.
[8] abbreviates: Table B4, class symbols, read-out: hTHP-1 IC50.
The mark [9] stands for this setting: Homo sapiens, THP-1, Table B3, hTHP-1 assay, numeric values, read-out: IC50.

Where two headings read alike, the source gives them in different places.

Consider 27 molecules from patent US20230031406A1, “COMPOUNDS AND COMPOSITIONS FOR TREATING CONDITIONS ASSOCIATED WITH NLRP ACTIVITY” (Novartis AG, priority 2018, published 2023).

For orientation: IC50 means the point on the concentration scale where inhibition reaches its midpoint. For `CCc1c(C(F)(F)F)nc2c(c1NC(=O)N=S(N)(=O)c1cnc(C(C)(C)O)s1)CCC2` (stereo not shown) [Compound 610, N′-((3-ethyl-2-(trifluoromethyl)-6,7-dihydro-5H-cyclopenta[b]pyridin-4-yl)carbamoyl)-2-(2-hydroxypropan-2-yl)thiazole-5-sulfonimidamide], the IC50 under setting [1] is 5000 to 30000 nM.
Turning to `Cc1c(C(F)(F)F)nc2c(c1NC(=O)N=S(N)(=O)c1nn(C(F)F)cc1F)CCC2` (single isomer, unassigned) [Example 562], under setting [2], the IC50 lay in the range of 200 to 1000 nM.
Turning to `Cc1c(C(F)(F)F)nc2c(c1NC(=O)N=S(N)(=O)c1cnc(C(C)(C)O)s1)CCC2C` (single isomer, unassigned) [Compound 608c], under setting [3], the 50% inhibitory concentration (IC50) is 200 to 1000 nM.
Turning to `C[C@@H]1CCc2c1nc1c(c2NC(=O)N=S(N)(=O)c2cnc([C@@](C)(O)CO)s2)CCC1` (single isomer, unassigned) [Example 730], the half-inhibitory concentration (IC50) (Homo sapiens, THP-1, Table B4, class symbols, read-out: hTHP-1 IC50) was 200 to 1000 nM.
With `C[C@@](O)(CO)c1cc(F)c([S@@](N)(=O)=NC(=O)Nc2c3c(nc4c2CCC42CC2)CCC3)s1` [Example 675, (S)-5-((R)-1,2-dihydroxypropan-2-yl)-3-fluoro-N′-((1′,5′,6′,7′-tetrahydro-2′H-spiro[cyclopropane-1,3′-dicyclopenta[b,e]pyridin]-8′-yl)carbamoyl)thiophene-2-sulfonimidamide], the 50% inhibitory concentration (IC50) under setting [4] lay in the range of 5000 to 30000 nM.
Turning to `CC(=O)c1csc(S(N)(=O)=NC(=O)Nc2c3c(nc4c2CC[C@H]4C)CCC3)c1` (single isomer, unassigned) [Example 665, (R) or (S)-4-acetyl-N′-(((R)-3-methyl-1,2,3,5,6,7-hexahydrodicyclopenta[b,e]pyridin-8-yl)carbamoyl)thiophene-2-sulfonimidamide], under setting [2], the half-inhibitory concentration (IC50) lay within 200 to 1000 nM.
As for `CC(C)(O)c1csc(S(N)(=O)=NC(=O)Nc2c3c(nc4c2CCC4)CCC3)c1` (single isomer, unassigned) [Compound 155a, (R) or (S)-N′-((1,2,3,5,6,7-hexahydrodicyclo-penta[b,e]pyridin-8-yl)carbamoyl)-4-(2-hydroxypropan-2-yl)thiophene-2-sulfonimidamide], under setting [5], the half-inhibitory concentration (IC50) lay in the range of 40 to 200 nM.
As to `CC(C)c1cc(C#N)nc(C(C)C)c1NC(=O)NS(=N)(=O)c1sc(C(C)(C)O)nc1CO` (stereo not shown) [Compound 696, N-((6-cyano-2,4-diisopropylpyridin-3-yl)carbamoyl)-4-(hydroxymethyl)-2-(2-hydroxypropan-2-yl)thiazole-5-sulfonimidamide], under setting [1], the IC50 was in the range of 5000 to 30000 nM.
On to `CC1(C)CCc2c1nc1c(c2NC(=O)N=S(N)(=O)c2ccn(C(F)F)n2)CCC1` (stereo not shown) [Compound 122, 1-(difluoromethyl)-N′-((3,3-dimethyl-1,2,3,5,6,7-hexahydrodicyclopenta[b,e]pyridin-8-yl)carbamoyl)-1H-pyrazole-3-sulfonimidamide], for which the concentration for half-maximal inhibition (IC50) under setting [6] was 200 to 1000 nM.
Regarding `CC1(C)CCc2c1nc1c(c2NC(=O)N=S(N)(=O)c2ccn(-c3ccccc3)n2)CCC1` (single isomer, unassigned) [Compound 659b, (R) or (S)-N′-((3,3-dimethyl-1,2,3,5,6,7-hexahydrodicyclopenta [b,e]pyridin-8-yl)carbamoyl)-1-phenyl-1H-pyrazole-3-sulfonimidamide], the half-maximal inhibitory concentration (IC50) under setting [3] was in the range of 200 to 1000 nM.
Consider `Cc1cc(C2CC2)nc(NC(=O)N=S(N)(=O)c2ncc(C(C)(C)O)s2)n1` (single isomer, unassigned) [Compound 185b, (S) or (R)-N′-((4-cyclopropyl-6-methylpyrimidin-2-yl)carbamoyl)-5-(2-hydroxypropan-2-yl)thiazole-2-sulfonimidamide], for which the IC50 is, setting by setting: (Homo sapiens, THP-1, Table B1, numeric bounds, read-out: Average IC50 of compounds in hTHP-1 assay: hTHP-1 IC50) greater than 30000 nM; under setting [7], greater than 30000 nM.
As for `CC(C)n1nc(S(N)(=O)=NC(=O)Nc2c3c(nc4c2CCC4(C)C)CCC3)cc1CO` (single isomer, unassigned) [Compound 652b], under setting [7], the 50% inhibitory concentration (IC50) was greater than 30000 nM.
Regarding `CCC1CCc2c1nc1c(c2NC(=O)N=S(N)(=O)c2ccn(C(F)F)n2)CCC1` (single isomer, unassigned) [Compound 668d, (S, R) or (S, S) or (R, S) or (R, R)-1-(Difluoromethyl)-N′-((3-ethyl-1,2,3,5,6,7-hexahydrodicyclopenta [b,e]pyridin-8-yl)carbamoyl)-1H-pyrazole-3-sulfonimidamide], the half-maximal inhibitory concentration (IC50) (Table B2, numeric bounds, read-out: hTHP-1 IC50) was greater than 30000 nM.
As for `CCn1ccc(S(N)(=O)=NC(=O)Nc2c3c(nc(C4CC4)c2C2CC2)CCC3)n1` (stereo not shown) [Compound 726], under setting [1], the IC50 lay within 1000 to 5000 nM.
With `CCn1cc(F)c(S(N)(=O)=NC(=O)Nc2c3c(nc(C)c2-c2ccccc2)CCC3)n1` (single isomer, unassigned) [Example 770, (S) or (R)-1-ethyl-4-fluoro-N′-((2-methyl-3-phenyl-6,7-dihydro-5H-cyclopenta[b]pyridin-4-yl)carbamoyl)-1H-pyrazole-3-sulfonimidamide], the IC50 under setting [8] lay within 40 to 200 nM.
Regarding `CC(C)(O)c1ncc(S(N)(=O)=NC(=O)Nc2c3c(nc4c2CCC4=O)CCC3)s1` (stereo not shown) [compound 593, 2-(2-Hydroxypropan-2-yl)-N′-((3-oxo-1,2,3,5,6,7-hexahydrodicyclopenta[b,e]pyridin-8-yl)carbamoyl)thiazole-5-sulfonimidamide], the IC50 under setting [9] is greater than 30000 nM.
In the case of `CC(C)(O)c1csc(S(N)(=O)=NC(=O)Nc2c3c(nc4c2CCC42CC2)CCC3)c1` (stereo not shown) [Compound 114], under setting [6], the half-maximal inhibitory concentration (IC50) was in the range of 40 to 200 nM.
In the case of `Cc1c(C(F)(F)F)nc2c(c1NC(=O)N=S(N)(=O)c1cnn3c1OCCC3)CCC2` (stereo not shown) [Example 565, N′-((3-methyl-2-(trifluoromethyl)-6,7-dihydro-5H-cyclopenta [b]pyridin-4-yl)carbamoyl)-6,7-dihydro-5H-pyrazolo[5,1-b][1,3]oxazine-3-sulfonimidamide], the IC50 under setting [4] lay in the range of 5000 to 30000 nM.
As for `CC(C)(O)c1nc(CO)c(S(N)(=O)=NC(=O)Nc2c3c(nc4c2CCC4(C)C)CCC3)s1` (single isomer, unassigned) [Compound 121a, (R) or (S)-N′-((3,3-dimethyl-1,2,3,5,6,7-hexahydro-dicyclopenta[b,e]pyridin-8-yl)carbamoyl)-4-(hydroxymethyl)-2-(2-hydroxypropan-2-yl)thiazole-5-sulfonimidamide], under setting [5], the half-maximal inhibitory concentration (IC50) lay in the range of 40 to 200 nM.
With `Cc1c(C2CCC2)nc2c(c1NC(=O)N=S(N)(=O)c1cnc(C(C)(C)O)s1)CCC2` (single isomer, unassigned) [Compound 649a, (R) or (S)-N′-((2-cyclobutyl-3-methyl-6,7-dihydro-5H-cyclopenta[b]pyridin-4-yl)carbamoyl)-2-(2-hydroxypropan-2-yl)thiazole-5-sulfonimidamide], the IC50 under setting [1] is 5000 to 30000 nM.
For the molecule `Cc1nc2c(c(NC(=O)N=[S@@](N)(=O)c3cnc(C(C)(C)O)s3)c1C1CC1)CCC2` [Example 581, (R)-N′-((3-cyclopropyl-2-methyl-6,7-dihydro-5H-cyclopenta[b]pyridin-4-yl)carbamoyl)-2-(2-hydroxypropan-2-yl)thiazole-5-sulfonimidamide], the IC50 under setting [9] was greater than 30000 nM.
For `CC(C)n1ccc(S(N)(=O)=NC(=O)Nc2c3c(nc4c2CCC4(C)C)CCC3)n1` (single isomer, unassigned) [Compound 126b, (S) or (R)-N′-((3,3-dimethyl-1,2,3,5,6,7-hexahydro-dicyclopenta[b,e]pyridin-8-yl)carbamoyl)-1-isopropyl-1H-pyrazole-3-sulfonimidamide], the half-inhibitory concentration (IC50) under setting [5] was 5000 to 30000 nM.
For the molecule `CCn1nc(S(N)(=O)=NC(=O)Nc2c(C)c(C(F)(F)F)nc3c2CCC3)cc1CO` (stereo not shown) [Example 588, 1-Ethyl-5-(hydroxymethyl)-N′-((3-methyl-2-(trifluoromethyl)-6,7-dihydro-5H-cyclopenta[b]pyridin-4-yl)calbamoyl)-1H-pyrazole-3-sulfonimidamide], the IC50 under setting [4] lay in the range of 1000 to 5000 nM.
`Cc1c(C(F)(F)F)nc(C(F)(F)F)c(C)c1NC(=O)N=S(N)(=O)c1cc(C(C)(C)O)cs1` (single isomer, unassigned) [Example 756, (S) or (R)-N′-((3,5-dimethyl-2,6-bis(trifluoromethyl)pyridin-4-yl)carbamoyl)-4-(2-hydroxypropan-2-yl)thiophene-2-sulfonimidamide]: the IC50 under setting [8] lay within 5000 to 30000 nM.
`CC1(C)CCc2c1nc1c(c2NC(=O)N=S(N)(=O)c2cnc(C(O)(CO)CO)s2)CCC1` (stereo not shown) [Compound 734, N′-((3,3-dimethyl-1,2,3,5,6,7-hexahydrodicyclopenta[b,e]pyridin-8-yl)carbamoyl)-2-(1,2,3-trihydroxypropan-2-yl)thiazole-5-sulfonimidamide]: the IC50 under setting [1] is 200 to 1000 nM.
`CCc1nc2c(c(NC(=O)N=S(N)(=O)c3cc(C(C)(C)O)cs3)c1C1CC1)CCC2` (single isomer, unassigned) [Compound 654a, (S) or (R)-N′-((3-cyclopropyl-2-ethyl-6,7-dihydro-5H-cyclopenta[b]pyridin-4-yl)carbamoyl)-4-(2-hydroxypropan-2-yl)thiophene-2-sulfonimidamide]: the half-maximal inhibitory concentration (IC50) under setting [3] fell in the range of 1000 to 5000 nM.
`NS(=O)(=NC(=O)Nc1c2c(nc3c1CCC3)CCC2)c1ccn(CC(F)(F)F)n1` (single isomer, unassigned) [Compound 685b, (R) or (S)-N′-((1,2,3,5,6,7-hexahydrodicyclopenta [b,e]pyridin-8-yl)carbamoyl)-1-(2,2,2-trifluoroethyl)-1H-pyrazole-3-sulfonimidamide]: under setting [1], the IC50 lay in the range of 1000 to 5000 nM.
